{"source": "paper PMC4354947", "about": "(Journal of medicinal chemistry, 2012)", "key": {"human eNPP1": {"test_system": "human eNPP1", "test": "Resistance to degradation by human eNPP1", "format": "in vitro ADME", "settings": "after 20 min, 37 °C, pH 8.5"}, "turkey P2Y1 receptor [1]": {"biological_target": "T1, turkey P2Y1 receptor (Meleagris gallopavo, UniProt P49652)", "T1 sequence (P49652 whole entry)": "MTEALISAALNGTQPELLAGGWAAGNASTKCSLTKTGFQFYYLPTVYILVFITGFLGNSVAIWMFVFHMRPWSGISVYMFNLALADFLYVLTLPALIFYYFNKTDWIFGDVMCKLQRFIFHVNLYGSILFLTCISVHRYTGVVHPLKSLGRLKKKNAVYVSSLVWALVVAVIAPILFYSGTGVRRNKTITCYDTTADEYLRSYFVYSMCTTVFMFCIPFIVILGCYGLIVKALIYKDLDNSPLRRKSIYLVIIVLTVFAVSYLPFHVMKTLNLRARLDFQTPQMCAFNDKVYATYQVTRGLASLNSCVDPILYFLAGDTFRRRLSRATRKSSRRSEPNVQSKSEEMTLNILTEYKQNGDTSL", "settings": "read-out: EC50 at P2Y1R, cited from earlier work"}, "insulin secretion": {"test_system": "insulin secretion", "settings": "cited from earlier work"}, "isolated rat pancreas": {"test_system": "isolated rat pancreas", "settings": "listed as IA; cited from earlier work"}, "blood glucose levels [2]": {"test_system": "blood glucose levels", "test": "Oral glucose tolerance test in naive mice", "format": "in vivo, mouse", "settings": "OGTT; for effect on blood glucose levels: 30 mg/kg iv"}, "[3]": {"test": "Chemical stability at acidic pH 1.4", "format": "physicochemical", "settings": "pH 1.4, 37 °C, pseudo-first-order model"}, "tail bleeding": {"test_system": "tail bleeding", "test": "Tail-bleed assay in rats, oral administration", "format": "in vivo, rat", "settings": "oral 30 mg/kg, 30 min before tail-cut"}, "[4]": {"test": "Solubility in aqueous media", "format": "physicochemical"}, "P2Y2 receptor": {"test_system": "P2Y2 receptor", "test": "Agonist activity at P2Y2 receptor", "format": "cell-based", "settings": "data not shown"}, "turkey P2Y1 receptor [5]": {"biological_target": "T1, turkey P2Y1 receptor", "test": "Increase in [Ca2+]i in 1321N1 astrocytoma cells expressing turkey P2Y1 receptor", "format": "cell-based"}, "P2Y6 receptor": {"test_system": "P2Y6 receptor", "test": "Agonist activity at P2Y6 receptor", "format": "cell-based", "settings": "data not shown"}, "blood glucose levels [6]": {"test_system": "blood glucose levels", "test": "Oral glucose tolerance test in naive rats", "format": "in vivo, rat", "settings": "OGTT, 30 mg/kg iv, within 45 min, saline 155 mg/dL"}, "blood glucose levels [7]": {"test_system": "blood glucose levels", "test": "Glucose tolerance test in db+/db- diabetic mouse model", "format": "in vivo", "settings": "db+/db− mice, 30 mg/kg iv"}, "P2Y4 receptor": {"test_system": "P2Y4 receptor", "test": "Agonist activity at P2Y4 receptor", "format": "cell-based", "settings": "data not shown"}, "blood glucose levels [8]": {"test_system": "blood glucose levels", "test": "Glucose tolerance test in STZ diabetic mouse model", "format": "in vivo", "settings": "STZ diabetic mice, 30 mg/kg iv"}, "[9]": {"settings": "read-out: EC50 at P2Y1R, increase in [Ca2+]i, human 1321N1 astrocytoma cells, turkey P2Y1R"}}, "note": "Where two headings read alike, the source gives them in different places."}
{"compound": "CSc1nc(N)c2ncn([C@@H]3O[C@H](COP(=O)(O)OP(=O)(O)O)[C@@H](O)[C@H]3O)c2n1", "note": "[2-MeS-ADP, reference compound]", "values": [{"measurement": "% hydrolysis of human eNPP1", "setting": "human eNPP1", "result": 16, "unit": "%"}]}
{"compound": "Nc1ncnc2c1ncn2[C@@H]1O[C@H](COP(=O)(O)OP(=O)(O)O)[C@@H](O)[C@H]1O", "note": "[ADP, adenosine 5′ diphosphate, reference compound]", "values": [{"measurement": "% hydrolysis of human eNPP1", "setting": "human eNPP1", "result": 25, "unit": "%"}]}
{"compound": "BP(=O)(OCC1OC(n2cnc3c(N)ncnc32)C(O)C1O)OP(=O)(O)OP(=O)(O)OCC1OC(n2cnc3c(N)ncnc32)C(O)C1O", "note": "(stereo not drawn) [Ap3(α-B)A]", "values": [{"measurement": "EC50", "setting": "turkey P2Y1 receptor [1]; first-named (A) isomer", "result": 760, "unit": "nM"}, {"measurement": "EC50", "setting": "turkey P2Y1 receptor [1]; second-named (B) isomer", "result": 800, "unit": "nM"}]}
{"compound": "[BH3-][P@@](=O)(OC[C@H]1O[C@@H](n2cnc3c(N)nc(SC)nc32)[C@H](O)[C@@H]1O)OP(=O)([O-])OP(=O)([O-])[O-].[Na+].[Na+].[Na+].[Na+]", "note": "[analogue 1A, 2-methylthio-ATP(α-B)]", "values": [{"measurement": "insulin secretion in vivo", "setting": "insulin secretion", "result": "failed to induce insulin secretion in vivo"}, {"measurement": "increase of insulin secretion over basal secretion", "setting": "isolated rat pancreas", "result": "up to 9 fold"}]}
{"compound": "[BH3-][P@@](=O)(OC[C@H]1O[C@@H](n2cnc3c(N)ncnc32)[C@H](O)[C@@H]1O)OP(=O)([O-])[O-].[Na+].[Na+].[Na+]", "note": "[analogue 2A, ADP(α-B)]", "values": [{"measurement": "% hydrolysis of human eNPP1", "setting": "human eNPP1", "result": 5, "unit": "%"}]}
{"compound": "[BH3-]P(=O)(OC[C@H]1O[C@@H](n2cnc3c(N)nc(SC)nc32)[C@H](O)[C@@H]1O)OP(=O)([O-])[O-].[Na+].[Na+].[Na+]", "note": "(stereo partly shown) [analogue 3, 2-Methylthioadenosine 5′-O-(′-Borano)diphosphate]", "values": [{"measurement": "effect on blood glucose levels", "setting": "blood glucose levels [2]", "result": "less effective than analogue 3A alone"}, {"measurement": "hydrolysis rate constant at pH 1.4", "setting": "[3]", "result": "2 × 10^−5 s^−1"}]}
{"compound": "[BH3-][P@@](=O)(OC[C@H]1O[C@@H](n2cnc3c(N)nc(SC)nc32)[C@H](O)[C@@H]1O)OP(=O)([O-])[O-].[Na+].[Na+].[Na+]", "note": "[analogue 3A, 2-Methylthioadenosine 5′-O-(′-Borano)diphosphate, A Isomer]", "values": [{"measurement": "bleeding time", "setting": "tail bleeding", "result": "increased"}, {"measurement": "tail bleeding blood volume", "setting": "tail bleeding", "result": "increased"}, {"measurement": "solubility in aqueous media", "setting": "[4]", "result": "highly soluble"}, {"measurement": "agonist activity at P2Y2 receptor", "setting": "P2Y2 receptor", "result": "no activity"}, {"measurement": "EC50", "setting": "turkey P2Y1 receptor [5]", "result": 38, "unit": "nM"}, {"measurement": "% hydrolysis of human eNPP1", "setting": "human eNPP1", "result": 4, "unit": "%"}, {"measurement": "effect on blood glucose levels, dose comparison", "setting": "blood glucose levels [2]; 10 and 30 mg/kg iv", "result": "higher dose being more effective at reducing the glucose load"}, {"measurement": "agonist activity at P2Y6 receptor", "setting": "P2Y6 receptor", "result": "no activity"}, {"measurement": "blood glucose level after glucose load", "setting": "blood glucose levels [6]", "result": "ca. 87 mg/dL"}, {"measurement": "effect on blood glucose levels", "setting": "blood glucose levels [7]", "result": "lower blood glucose levels to normal values"}, {"measurement": "agonist activity at P2Y4 receptor", "setting": "P2Y4 receptor", "result": "no activity"}, {"measurement": "effect on blood glucose levels", "setting": "blood glucose levels [8]", "result": "lower blood glucose levels to normal values"}]}
{"compound": "[BH3-][P@](=O)(OC[C@H]1O[C@@H](n2cnc3c(N)nc(SC)nc32)[C@H](O)[C@@H]1O)OP(=O)([O-])[O-].[Na+].[Na+].[Na+]", "note": "[analogue 3B, 2-Methylthioadenosine 5′-O-(′-Borano)diphosphate, B Isomer]", "values": [{"measurement": "effect on blood glucose levels", "setting": "blood glucose levels [2]", "result": "ineffective"}]}
{"compound": "P1-Borano P1,P3-5′-Di-2-methylthioadenosine 5′-Triphosphate [analogue 4]", "values": [{"measurement": "fold increase in potency at P2Y1R by MeS substitution at C2", "setting": "turkey P2Y1 receptor [5]; analogue 4 isomers vs Ap3(α-B)A isomers", "result": 4.6, "unit": "fold"}]}
{"compound": "P^1-Borano P^1,P^3-5′-Di-2-methylthioadenosine 5′-Triphosphate, A Isomer [analogue 4A]", "values": [{"measurement": "EC50", "setting": "turkey P2Y1 receptor [5]; [9]", "result": 140, "unit": "nM"}]}
{"compound": "P^1-Borano P^1,P^3-5′-Di-2-methylthioadenosine 5′-Triphosphate, B Isomer [analogue 4B]", "values": [{"measurement": "EC50", "setting": "turkey P2Y1 receptor [5]; [9]", "result": 190, "unit": "nM"}]}
